# Data from patent US20090270435A1 (priority 2006, published 2009).
# Structures can show the parent of a compound that is named as a salt.
# Molecular target: T1, ACC1 from rat liver (Rattus norvegicus, UniProt P11497)
# T1 construct: The livers (for ACC1 preparation) or skeletal muscle tissue (for ACC2 preparation) are removed; from tissue; host or cells: liver of male CD rats (fasted, then fed a high sucrose diet)
# Experiment: Direct inhibition of ACC1 activity (14C-bicarbonate incorporation)
# Assay type: biochemical
# Conditions: ACC1 from rat liver
# Description: [1] Preparation of ACC1 and ACC2.
# Male CD rats weighing 150-200 g are fasted for 2 days and then fed a high sucrose diet (AIN-76A rodent diet; Cat # D10001, Research Diets Inc., New Brunswick, N.J.), for 3 days at which time they are sacrificed by CO2 asphyxiation. The livers (for ACC1 preparation) or skeletal muscle tissue (for ACC2 preparation) are removed, rinsed in ice-cold phosphate-buffered saline (PBS), and homogenized in 5 volumes of homogenization buffer (50 mM potassium phosphate, pH 7.5, 10 mM EDTA, 10 mM 2-mercaptoethanol, 2 mM benzamidine, 0.2 mM phenylmethylsulfonylfluoride (PMSF), 5 mg/L each leupeptin, aprotinin, and antitrypsin) in a Waring® blender for 1 minute at 4° C. All subsequent operations are carried out at 4° C. The homogenate is made 3% with respect to polyethylene glycol (PEG) by the addition of 50% PEG solution and centrifuged at 20,000×g for 15 minutes. The resulting supernatant is adjusted to 5% PEG with the addition of 50% PEG solution and stirred for 5 minutes. The pellet (contains ACC activity) is collected by centrifugation at 20,000×g for 20 minutes, rinsed with Ice-cold doubly distilled water to remove excess PEG and re-suspended in one-fourth the original homogenate volume with homogenization buffer. Ammonium sulfate (200 g/liter) is slowly added with stirring. After 45 minutes the enzyme is collected by centrifugation for 30 minutes at 20,000×g, re-suspended in 10 ml of 50 mM HEPES, pH7.5, 0.1 mM DTT, 1.0 mM EDTA, and 10% glycerol and desalted on a Sephadex™ G-25 column (2.5 cm-x 50 cm) (Pharmacia, Piscataway N.J. now GE Healthcare) […] equilibrated with the same buffer. The desalted enzyme preparation is stored in aliquots at −70° C. Immediately prior to use, frozen ACC1 or ACC2 aliquots are thawed, diluted to 500 μg/ml in buffer containing 50 mM HEPES, pH7.5, 1.0 mM MgCl2, 10 mM tripotassium citrate, 2.0 mM dithiothreitol (DTT), and 0.75 mg/ml fatty acid-free bovine serum albumin (BSA) and pre-incubated at 37° C. for 30 minutes.
# [2] Measurement of ACC inhibition. The procedures for measuring ACC1 inhibition and ACC2 inhibition are identical except for the source of the isozyme. For measurement of ACC activity and assessment of ACC inhibition, test compounds are dissolved in dimethylsulfoxide (DMSO) and 1 μL aliquots are placed in 0.5 ml polypropylene tubes. Control tubes contain 1 μL of DMSO alone. Tubes are incubated at 37° C. in a constant temperature water bath. […] The reaction is then initiated by the addition of 10 μL of preincubated ACC fraction prepared as described above. After 7 minutes the reaction is terminated by the addition of 50 μL of 6N HCl and a 150 μL aliquot of the reaction mixture is transferred to glass scintillation vials and evaporated to dryness at 90° C. for at least 1 hour. The dried vials are then cooled, 0.5 ml of water and 5.5 ml of Ready Safe liquid scintillation fluid (Beckman Coulter Inc., Fullerton, Calif.) are added, and the radioactivity is determined using a liquid scintillation counter. Tubes that received HCl before ACC served as blanks.
row,Compound,IC50 [nM]
1,"Cc1cc(C(=O)N2CCC3(CC2)CC(=O)c2cc(C(C)C)ccc2O3)cc2cn[nH]c12 [Ex. A23, 6-isopropyl-1′-[(7-methyl-1H-indazol-5-yl)carbonyl]spiro[chromene-2,4′-piperidin]-4(3H)-one]",109
2,"COc1cccc2c1C(=O)CC1(CCN(C(=O)c3cc(C)c4[nH]ncc4c3)CC1)O2 [Ex. A25, 5-methoxy-1′-[(7-methyl-1H-indazol-5-yl)carbonyl]spiro[chromene-2,4′-piperidin]-4(3H)-one]",112
3,"Cc1cc2c(cc1C)C(=O)CC1(CCN(C(=O)c3cc(C)c4[nH]nc(C)c4c3)CC1)O2 [Ex. E3, 1′-[(3,7-dimethyl-1H-indazol-5-yl)carbonyl]-6,7-dimethylspiro[chromene-2,4′-piperidin]-4(3H)-one]",9.8
4,"Cc1cc(C(=O)N2CCC3(CC2)CC(=O)c2cc(Cl)c(Cl)cc2O3)cc2cn[nH]c12 [Ex. A14, 6,7-dichloro-1′-[(7-methyl-1H-indazol-5-yl)carbonyl]spiro[chromene-2,4′-piperidin]-4(3H)-one]",52
5,"Cc1cc(C(=O)N2CCC3(CC2)CC(=O)c2cc(C#N)ccc2O3)cc2cn[nH]c12 [Ex. A31, 1′-[(7-methyl-1H-indazol-5-yl)carbonyl]-4-oxo-3,4-dihydrospiro[chromene-2,4-piperidine]+carbonitrile]",234
6,"COC(=O)c1ccc2c(c1)C(=O)CC1(CCN(C(=O)c3cc(C)c4[nH]ncc4c3)CC1)O2 [Ex. A11, methyl 1-[(7-methyl-1H-indazol-5-yl)carbonyl]-4-oxo-3,4-dihydrospiro[chromene-2,4-piperidine]-6-carboxylate]",40
7,"1′-[(7-bromo-1H-indazol-6-yl)carbonyl]-6-chlorospiro[chromene-2,4′-piperidin]-4(3H)-one [Ex. G5]",> 1000
8,"N#Cc1ccc2c(c1)C(=O)CC1(CCN(C(=O)c3cc(Cl)c4[nH]ncc4c3)CC1)O2 [Ex. B14, 1′-[(7-chloro-1H-indazol-5-yl)carbonyl]-4-oxo-3,4-dihydrospiro[chromene-2,4-piperidine]carbonitrile]",331
9,"COc1cc(C)c2c(c1)OC1(CCN(C(=O)c3cc(C)c4[nH]ncc4c3)CC1)CC2=O [Ex. A28, 7-methoxy-5-methyl-1′-[(7-methyl-1H-indazol-5-yl)carbonyl]spiro[chromene-2,4′-piperidin]-4(3H)-one]",138
10,"Cc1cc2c(cc1C)C(=O)CC1(CCN(C(=O)c3ccc4cc[nH]c4c3)CC1)O2 [Ex. L2, 1′-(1H-indol-6-ylcarbonyl)-6,7-dimethylspiro[chromene-2,4′-piperidin]-4(3H)-one trifluoroacetic acid salt]",155
11,"Cc1cc2c(cc1C)C(=O)CC1(CCN(C(=O)c3cc(Cl)c4[nH]ncc4c3)CC1)O2 [Ex. B1, 1′-[(7-chloro-1H-indazol-5-yl)carbonyl]-6,7-dimethylspiro[chromene-2,4′-piperidin]-4(3H)-one]",24.1
12,"Cc1cc(C(=O)N2CCC3(CC2)CC(=O)c2ccc(C#N)cc2O3)cc2cn[nH]c12 [Ex. A32, 1′-[(7-methyl-1H-indazol-5-yl)carbonyl]H-oxo-3,4-dihydrospiro[chromene-2,4′-piperidine]-7-carbonitrile]",277
13,"COc1ccc2c(c1)OC1(CCN(C(=O)c3cc(Cl)c4[nH]ncc4c3)CC1)CC2=O [Ex. B7, 1′-[(7-chloro-1H-indazol-5-yl)carbonyl]-7-methoxyspiro[chromene-2,4′-piperidin]-4(3H)-one]",166
14,"COc1ccc2c(c1)OC1(CCN(C(=O)c3cc(C)c4[nH]ncc4c3)CC1)CC2=O [Ex. A24, 7-methoxy-1′-[(7-methyl-1H-indazol-5-yl)carbonyl]spiro[chromene-2,4′-piperidin]-4(3H)-one]",122
15,"Cc1cc(C(=O)N2CCC3(CC2)CC(=O)c2cc(C(=O)O)ccc2O3)cc2cn[nH]c12 [Ex. A33, 1′-[(7-methyl-1H-indazol-5-yl)carbonyl]-4-oxo-3,4-dihydrospiro[chromene-2,4′-piperidine]-6-carboxylic acid trifluoroacetic acid salt]",303

# The remaining lines, values ahead:
row,IC50 [nM],Compound
1,106,"O=C1CC2(CCN(C(=O)c3ccc4[nH]c5c(c4c3)CCNC5=O)CC2)Oc2ccc(Cl)cc21 [Ex. K3, 6-chloro-1′-[(1-oxo-2,3,4,9-tetrahydro-1H-beta-carbolin-6-yl)carbonyl]spiro[chromene-2,4′-piperidin]-4(3H)-one]"
2,167,"Cc1cc2c(cc1C)C(=O)CC1(CCN(C(=O)c3ccc4cnn(C)c4c3)CC1)O2 [Ex. G2, 6,7-dimethyl-1′-[(1-methyl-1H-indazol-6-yl)carbonyl]spiro[chromene-2,4′-piperidin]-4(3H)-one]"
3,381,"COc1ccc2c(c1F)C(=O)CC1(CCN(C(=O)c3cccc4cn[nH]c34)CC1)O2 [Ex. H6, 5-fluoro-1′-(1H-indazol-7-ylcarbonyl)-6-methoxyspiro[chromene-2,4′-piperidin]-4(3H)-one]"
4,613,"Cc1cc2c(cc1C)C(=O)CC1(CCN(C(=O)c3ccc4[nH]c(C(F)(F)F)nc4c3)CC1)O2 [Ex. L25, 6,7-dimethyl-1′-{[2-(trifluoromethyl)-1H-benzimidazol-5-yl]carbonyl}spiro[chromene-2,4′-piperidin]-4(3H)-one trifluoroacetic acid salt]"
5,> 1000,"COc1c(C(=O)N2CCC3(CC2)CC(=O)c2cc(C)c(C)cc2O3)cc(Cl)c2nc(C)[nH]c12 [Ex. L27, 1′-[(4-chloro-7-methoxy-2-methyl-1H-benzimidazol-6-yl)carbonyl]-6,7-dimethylspiro[chromene-2,4′-piperidin]-4(3H)-one]"
6,47.3,"COc1cccc2c1C(=O)CC1(CCN(C(=O)c3ccc4c(Cl)c[nH]c4c3)CC1)O2 [Ex. L6, 1′-[(3-chloro-1H-indol-6-yl)carbonyl]-5-methoxyspiro[chromene-2,4′-piperidin]-4(3H)-one]"
7,2530,COc1ccc2c(c1)OC1(CCN(C(=O)c3cccc4cn[nH]c34)CC1)CC2=O [Ex. H21]
8,< 1000,"O=C1CC2(CCN(C(=O)c3ccc4[nH]nnc4c3)CC2)Oc2ccc(Cl)cc21 [Ex. L38, 1′-(1H-1,2,3-benzotriazol-5-ylcarbonyl)-6-chlorospiro[chromene-2,4′-piperidin]-4(3H)-one]"
9,83.3,"Cc1cc2c(cc1C)C(=O)CC1(CCN(C(=O)c3ccc4ccn(C)c4c3)CC1)O2 [Ex. L4, 6,7-dimethyl-1′-[(1-methyl-1H-indol-6-yl)carbonyl]spiro[chromene-2,4′-piperidin]-4(3H)-one]"

# Same assay, conditions: Table of Examples M1-M36
row,IC50 [nM],Compound
1,418,"O=C1CC2(CCN(C(=O)c3cccc(-c4cc[nH]n4)c3)CC2)Oc2ccc(C(F)(F)F)cc21 [Ex. M19, 1′-[3-(1H-pyrazol-3-yl)benzoyl]-6-(trifluoromethyl)spiro[chromene-2,4′-piperidin]-4(3H)-one]"
2,201,"Cc1cc2c(cc1Br)C(=O)CC1(CCN(C(=O)c3cccc(-c4cc[nH]n4)c3)CC1)O2 [Ex. M10, 6-bromo-7-methyl-1′-[3-(1H-pyrazol-3-yl)benzoyl]spiro[chromene-2,4′-piperidin]-4(3H)-one]"

# Same assay, conditions: Table of Examples O1-O4
row,IC50 [nM],Compound
1,55,"COc1cc(Cl)c2c(c1)OC1(CCN(C(=O)c3cccc(-c4ccn[nH]4)c3)CC1)CC2=O [Ex. O2, 5-chloro-7-methoxy-1′-[3-(1H-pyrazol-5-yl)benzoyl]spiro[chromene-2,4′-piperidin]-4(3H)-one]"

# Same assay, conditions: Table of Examples P1-P15
row,IC50 [nM],Compound
1,426,"Cc1cc2c(cc1Cl)C(=O)CC1(CCN(C(=O)c3cccc(-c4cc(C(F)(F)F)[nH]n4)c3)CC1)O2 [Ex. P2, 6-chloro-7-methyl-1′-{3-[5-(trifluoromethyl)-1H-pyrazol-3-yl]benzoyl}spiro[chromene-2,4′-piperidin]-4(3H)-one trifluoroacetic acid salt]"
2,< 3000,"Cc1cc2c(cc1C)C(=O)CC1(CCN(C(=O)c3cccc(-c4ccncn4)c3)CC1)O2 [Ex. P13, 6,7-Dimethyl 1′-[3-(pyrimidin-4-yl)benzoyl]spiro[chromene-2,4′-piperidin]-4(3H)-one]"
